The target of data set [1] is T1, FXR ligand binding domain (Homo sapiens, UniProt Q96RI1).
T1 construct: expressed in transfected cells; host or cells: HEK293 cells (DSMZ), transient transfection of pCMV-BD-FXR-LBD
T1 sequence (Q96RI1 187-472 isoform Q96RI1-2): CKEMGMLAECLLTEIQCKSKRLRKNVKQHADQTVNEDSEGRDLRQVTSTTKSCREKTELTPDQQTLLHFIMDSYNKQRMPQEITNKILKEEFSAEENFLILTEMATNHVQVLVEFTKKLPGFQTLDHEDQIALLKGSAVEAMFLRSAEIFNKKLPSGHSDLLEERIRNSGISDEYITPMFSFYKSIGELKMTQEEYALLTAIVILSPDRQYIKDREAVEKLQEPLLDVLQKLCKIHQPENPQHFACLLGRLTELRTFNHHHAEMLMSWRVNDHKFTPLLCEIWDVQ
Put plainly: Mammalian One Hybrid (M1H) Gal4 reporter assay in HEK293 cells. The format is cell-based. The settings on record: potency range. On the procedure:
Determination of a ligand mediated Gal4 promoter driven transactivation to quantify ligand binding mediated activation of FXR was performed as follows: The cDNA part encoding the FXR ligand binding domain was cloned into vector pCMV-BD (Stratagene) as a fusion to the yeast GAL4 DNA binding domain under the control of the CMV promoter. The amino acid boundaries of the ligand binding domain were amino acids 187-472 of Database entry NM_005123 (RefSeq). The plasmid pFR-Luc (Stratagene) was used as the reporter plasmid, containing a synthetic promoter with five tandem repeats of the yeast GAL4 binding sites, driving the expression of the Photinus pyralis (American firefly) luciferase gene as the reporter gene. In order to improve experimental accuracy the plasmid pRL-CMV (Promega) was cotransfected. pRL-CMV contains the constitutive CMV promoter, controlling the expression of the Renilla reniformis luciferase. All Gal4 reporter gene assays were done in HEK293 cells (obtained from DSMZ, Braunschweig, Germany) grown in MEM with L-Glutamine and Earle's BSS supplemented with 10% fetal bovine serum, 0.1 mM nonessential amino acids, 1 mM sodium pyruvate, and 100 units Penicillin/[…] per mL at 37° C. in 5% CO2. Medium and supplements were obtained from Invitrogen. For the assay, […] were plated per well in 96 well plates in 100 μL per well MEM without Phenol Red and L-Glutamine and with Earle's BSS supplemented with 10% charcoal/dextran treated FBS (HyClone, South Logan, Utah), 0.1 mM nonessential amino acids, 2 mM glutamine, 1 mM sodium pyruvate, and 100 units Penicillin/[…] per mL, incubated at 37° C. in 5% CO2. The following day the cells were >90% confluence. Medium was removed and cells were transiently transfected using 20 μL per well of a OptiMEM—polyethylene-imine-based transfection-reagent (OptiMEM, Invitrogen; Polyethyleneimine, Aldrich Cat No. 40, 827-7) including the three plasmids described above. MEM with the same composition as used for plating cells was added 2-4 h after addition of transfection mixture. Then compound stocks, prediluted in MEM were added (final vehicle concentration not exceeding 0.1%). Cells were incubated for additional 16 h before firefly and renilla luciferase activities were measured sequentially in the same cell extract using a Dual-Light-Luciferase-Assay system (Dyer et al., Anal. Biochem. 2000, 282, 158-161). All experiments were done in triplicates.
In general terms: Reporter assays use an easily measured gene product as a stand-in for the process of interest.

Data set [2] is described as follows: Pharmacokinetics in monkeys after oral administration 12 mg/kg. The settings on record: oral 12 mg/kg, Avg; for AUC(0-inf) / AUC(0-t) / Cmax / Tmax / half-life / MRT last / Vd/F: Cynomolgus, cynomolgus monkey, plasma; for MRT last: read-out: MRT0-t (converted); for Vd/F: read-out: Vz/F. Format: in vivo, Cynomolgus monkeys (Macacca mulatta). On the procedure: (§1) Compounds were applied perorally by gavage at 5 mg/kg each and by i.v. Injection at 1 mg/kg each to male 12 weeks old C57BI/6J or Sprague Dawley rats and plasma concentrations of the test items were determined by LC-MS/MS after time points as indicated. In the case of Cynomolgus monkeys ([…]), the dose was adjusted to 12 mg/kg p.o., no i.v. injection was given (FIG. 1a, 1b and Table 2).
(§2) A solution of 2.5 mg/mL of each test item was produced by diluting them in the vehicle, 0.5% Hydroxypropyl-Methylcellulose (w/v) in 20 mM phosphate buffered saline pH 7.4. The solutions were stirred overnight at room temperature and heated to 40° C. for 10 minutes, resulting in fully homogenous suspension. The application was performed by administrating the solution perorally to the mice, with an application volume of 5 mL/kg. For each time point three mice or rats were used. In case of the Cynomolgus monkeys blood samples were obtained by repeated vein puncture. Blood samples were treated with L1-heparin during collection procedure and stored on ice until centrifugation at 645 g (5 min, 4° C.). Plasma was harvested and kept at −20° C. until being assayed. To 50 μL of plasma sample 6 μL acetonitrile containing an internal standard was added. Samples were vigorously shaken and centrifuged for 10 minutes at 6000 g and 20° C. An aliquot of the particle-free supernatant was transferred to 200 μL sampler vials and subsequently subjected to LC MS/MS for quantification.

The nature of data set [3]: Pharmacokinetics in rat after oral administration 5 mg/kg. The format is in vivo, Male Sprague Dawley Rat. The settings on record: for AUC(0-inf) / Cmax / MRT last / Tmax / half-life / bioavailability / AUC(0-t): male, Sprague Dawley, plasma; for AUC(0-inf) / Cmax / MRT last / Tmax / half-life / AUC(0-t) / AUC Extrapolated / CI / Vd: oral 5 mg/kg; for bioavailability: oral 5 mg/kg vs i.v. 1 mg/kg, read-out: Absolute Bioavailability; for AUC(0-t): read-out: AUC(0-8). On the procedure: as §1, §2

The nature of data set [4]: Plasma levels in mice after single dose gavage 5 mg/kg. The format is in vivo. The settings on record: C57/bl6 mice, FIG. 1c, 5 mg/kg gavage. On the procedure: Data represent the mean of 3 individual mouse plasma measurements.
as §1
as §2, with “To 50 μL of plasma sample 6 μL acetonitrile containing an internal standard was added. Samples were vigorously shaken and centrifuged for 10 minutes at 6000 g and 20° C.” left out

Data set [5] is described as follows: UV stability, irradiation at 366 nm on a DMSO thin film, LCMS. The settings on record: 366 nm emission, 250 μM in DMSO thin film, FIG. 3m. Format: physicochemical. On the procedure: A different, more rapid experimental setup was used to investigate a broader set of compounds in comparison to GW4064. The substances were dissolved in reagent grade DMSO (99.5%, Karl Roth) at a concentration of 250 μM. DMSO solution was spread over a silica glass slide to a depth of approximately 2 mm and irradiated using a UV lamp set to 366 nm emission (Benda Instruments, Wiesloch Germany) using an 8 W tube set approximately 2.5 cm from the target materials. The solution was sampled prior to irradiation (T=0 min) and at various intervals thereafter. Stocks and samples were maintained in foil wrapped tubes out of direct light. Samples were injected (2 μL) directly onto a LCMS System for analysis without any further preparation.

By EC50 is commonly meant the concentration at which the effect is half-maximal. A higher EC50 goes with lower potency in that assay. What is called AUC(0-inf) is the area under the concentration-time curve extrapolated to infinity. Read a high AUC(0-inf) as high exposure. Usually Cmax stands for the highest concentration seen after dosing. A word on the Tmax: it is the time at which the peak concentration occurs. As a reminder, the half-life is the time in which the quantity being followed falls by half. A high value points to slow decline. Usually bioavailability stands for dose-corrected exposure relative to a reference, in per cent. On to `O=C(O)c1cccc(C2CC2c2ccc(OCc3c(-c4c(Cl)cccc4Cl)noc3C3CC3)cc2Cl)c1` (racemic) [Example 4, 3-(2-(2-chloro-4-((5-cyclopropyl-3-(2,6-dichlorophenyl)isoxazol-4-yl)methoxy)phenyl)-cyclopropyl)benzoic acid], for which the EC50 in data set [1] lay in the range of 10 to 100 nM. For the same compound, in data set [2], the AUC(0-inf) is 30700 ng·h/mL, the AUC(0-t) is 30500 ng·h/mL, the concentration peaked (Cmax) at 7340 ng/mL and the Tmax is 1.42 h. Moreover, in data set [2], the half-life stood at 2.92 h, the MRT last is 4.31 h, the Vd/F was found to be 1.93 L/kg and the CLz/F is 7 mL/min/kg. For the same compound, in data set [3], the AUC(0-inf) was 406 ng·h/mL, the Cmax worked out at 93.1 ng/mL, the MRT last turned out to be 2.97 h and the Tmax was 0.5 h. Further, in data set [3], the half-life is 4.08 h, the bioavailability is 8.8%, the AUC(0-t) came out at 287 ng·h/mL and the “AUC Extrapolated” value is on record as 33.93%. For the same compound, in data set [3], the CI came to 205.0343 mL/min/kg and the Vd was found to be 72.49139 L/kg. Moreover, in data set [4], the “plasma levels as compared to GW4064” value was “substantially higher”.
With `O=C(O)c1ccc(C2CC2c2ccc(OCc3c(-c4c(Cl)cccc4Cl)noc3C3CC3)cc2Cl)cc1` (racemic) [Example 12, 4-(2-(2-chloro-4-((5-cyclopropyl-3-(2,6-dichlorophenyl)isoxazol-4-yl)methoxy)phenyl)cyclopropyl)benzoic acid], in data set [1], the EC50 fell in the range of 10 to 100 nM. Besides, in data set [2], the AUC(0-inf) was 15100 ng·h/mL, the AUC(0-t) was 14500 ng·h/mL, the Cmax came out at 2220 ng/mL and the Tmax is 2.92 h. For the same compound, in data set [2], the half-life stood at 4.54 h, the MRT last is 6.11 h, the Vd/F is 5.19 L/kg and the CLz/F came out at 13 mL/min/kg. For the same compound, in data set [3], the AUC(0-inf) stood at 681 ng·h/mL, the concentration peaked (Cmax) at 210 ng/mL, the MRT last was 2.42 h and the Tmax is 0.5 h. In addition, in data set [3], the half-life was 2.78 h, the bioavailability is 30.9%, the AUC(0-t) was 570 ng·h/mL and the “AUC Extrapolated” value is listed as 16.32%. Further, in data set [3], the CI is 122.39 mL/min/kg and the Vd was found to be 29.44442 L/kg. Further, the “plasma levels as compared to GW4064” value in data set [4] is reported as “substantially higher”. For the same compound, the “photostability compared to GW4064” value in data set [5] is “higher photostability”.

The values above are taken from patent US8952042B2, “FXR (NR1H4) binding and activity modulating compounds” (Phenex Pharmaceuticals AG, priority 2009, dated 2015).
